For 40 compounds, outcome and EC50 results are on record in PubChem BioAssay AID702 (NMMLSC, 2007).

As a reminder, the EC50 is the midpoint of the concentration-response curve.

The structures appear in SMILES notation. Results filed as inconclusive are left out. Active and inactive are the calls of the source. No rule for the calls is given here.

Chain of Integrin alpha-4 (Homo sapiens) (P13612 whole entry, looked up): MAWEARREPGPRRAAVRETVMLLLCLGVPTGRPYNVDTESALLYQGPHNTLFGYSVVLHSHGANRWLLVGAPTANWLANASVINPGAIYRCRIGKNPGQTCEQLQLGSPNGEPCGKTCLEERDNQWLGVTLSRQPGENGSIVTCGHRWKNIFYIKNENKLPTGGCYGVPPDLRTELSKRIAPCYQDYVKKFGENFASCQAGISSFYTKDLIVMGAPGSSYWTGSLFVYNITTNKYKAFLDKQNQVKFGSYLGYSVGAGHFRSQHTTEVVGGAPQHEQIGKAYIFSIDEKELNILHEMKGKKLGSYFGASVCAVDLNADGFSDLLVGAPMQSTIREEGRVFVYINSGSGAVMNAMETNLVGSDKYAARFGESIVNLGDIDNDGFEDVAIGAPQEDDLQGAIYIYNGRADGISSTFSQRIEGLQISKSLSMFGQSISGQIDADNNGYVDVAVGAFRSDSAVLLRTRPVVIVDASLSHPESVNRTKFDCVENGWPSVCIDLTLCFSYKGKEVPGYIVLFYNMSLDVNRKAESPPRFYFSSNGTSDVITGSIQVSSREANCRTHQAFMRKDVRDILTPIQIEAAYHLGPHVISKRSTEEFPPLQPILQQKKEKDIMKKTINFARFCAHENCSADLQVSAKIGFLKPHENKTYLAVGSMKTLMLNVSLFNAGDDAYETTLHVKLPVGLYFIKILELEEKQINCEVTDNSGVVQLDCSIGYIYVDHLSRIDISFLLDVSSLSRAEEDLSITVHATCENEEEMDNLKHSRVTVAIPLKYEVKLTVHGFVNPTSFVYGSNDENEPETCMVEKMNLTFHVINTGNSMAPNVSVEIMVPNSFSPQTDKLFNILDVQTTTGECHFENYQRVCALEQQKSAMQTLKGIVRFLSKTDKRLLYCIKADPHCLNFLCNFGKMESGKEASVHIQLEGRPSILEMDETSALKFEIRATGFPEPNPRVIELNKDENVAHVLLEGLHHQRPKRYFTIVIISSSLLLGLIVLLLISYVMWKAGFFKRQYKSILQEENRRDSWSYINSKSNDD

The assay has as its target Integrin alpha-4 (Homo sapiens) (UniProt P13612). Put plainly: inhibition of LDV ligand binding to VLA-4 – cell-based, LDV-FITC binding, flow cytometry, dose response (AID 702). In general terms: A flow cytometer gives signals particle by particle.
Regarding `CCCCC1(C(=O)O)C(=O)N(c2ccccc2)N(c2ccccc2)C1=O`, the outcome was inactive.

For `CCOc1ccc(C(CC(=O)O)NC(=O)C23CC4CC(CC(C4)C2)C3)cc1` (stereo not given), the EC50 is 0.09 µM.

With `COc1cc2[nH]c3c(N4CCN(c5ccccn5)CC4)ncnc3c2cc1OC`, the outcome was inactive.

As to `O=C(Cn1nc(-c2ccc3c(c2)OCCO3)ccc1=O)Nc1ccc(N2CCOCC2)cc1`, the EC50 is 14.1 µM.

Turning to `O=C1C(CCS(=O)c2ccccc2)C(=O)N(c2ccccc2)N1c1ccccc1` (stereo not given), the EC50 was 17.3 µM.

For the compound `CCOc1cc2[nH]c(=O)n(CCC(=O)NCCOC)c(=O)c2cc1OCC`, the result was inactive.

For the compound `C=C(C)C1Cc2c(C)nn(-c3nc(C)cc(C)n3)c2C1` (stereo not given), the EC50 is 45.1 µM.

As to `O=C(O)CCCn1c(=O)[nH]c2cc3c(cc2c1=O)OCO3`, the outcome was inactive.

On to `CCOc1cc2[nH]c(=O)n(CCCCCC(=O)NCc3ccco3)c(=O)c2cc1OCC`, for which the result was inactive.

As to `Cc1onc(-c2ccccc2)c1C(=O)NC(CC(=O)O)c1ccc(OC(C)C)cc1` (stereo not given), the EC50 is 6.5 µM.

As to `Cc1cc(C)cc(-n2ccnc(SCC(=O)Nc3ccc(Cl)cc3F)c2=O)c1`, the EC50 is 52.6 µM.

For the compound `COc1cccc2sc(Nc3nc(-c4ccncc4)cs3)nc12`, the outcome was inactive.

In the case of `CCOc1cc2[nH]c(=O)n(CCCC(=O)NCc3ccco3)c(=O)c2cc1OCC`, the outcome was inactive.

For the compound `COc1cc(Cn2c(-c3nonc3N)nc3ccccc32)ccc1C`, the outcome was inactive.

In the case of `COc1cccc2sc(Nc3nnc(-c4ccccc4Cl)o3)nc12`, the EC50 was 5.14 µM.

As to `CCCCC1C(=O)N(c2ccccc2)N(c2ccccc2)C1=O`, the EC50 was 1.06 µM.

In the case of `CCOc1cc2[nH]c(=O)n(CCCC(=O)N3CCCC3)c(=O)c2cc1OCC`, the result was inactive.

Turning to `COc1cc2[nH]c(=O)n(CCC(=O)NCc3cccnc3)c(=O)c2cc1OC`, the result was inactive.

As for `CCOc1cc2[nH]c(=O)n(CC3CCC(C(=O)NCCC(C)C)CC3)c(=O)c2cc1OCC` (stereo not given), the EC50 was 2.34 µM.

On to `CCCCCNC(=O)CCCCn1c(=O)[nH]c2cc(OCC)c(OCC)cc2c1=O`, for which the EC50 is 4.6 µM.

Consider `O=C1NC(=O)C(c2ccccc2)N1` (stereo not given), for which the outcome was inactive.

Regarding `O=C(NCC12CC3CC(CC(C3)C1)C2)c1nn2c(c1Cl)NC(c1ccco1)CC2C(F)(F)F` (stereo not given), the outcome was inactive.

As for `CCOc1cc2[nH]c(=O)n(CC3CCC(C(=O)NC(C)CC)CC3)c(=O)c2cc1OCC` (stereo not given), the EC50 was 4.27 µM.

`CCCCC1(C)C(=O)N(c2ccccc2)N(c2ccccc2)C1=O`: the result was inactive.

As to `CCCCN1C(=O)C(c2ccccc2)N(c2ccccc2)C1=O` (stereo not given), the outcome was inactive.

On to `CCOc1cc2[nH]c(=O)n(CCCCC(=O)NC3CCCCCC3)c(=O)c2cc1OCC`, for which the EC50 was 5.13 µM.

For `COc1ccccc1-c1nnc(Nc2nc3c(OC)cccc3s2)o1`, the outcome was inactive.

`CCCCC1(O)C(=O)N(c2ccccc2)N(c2ccccc2)C1=O`: the result was inactive.

Take `COc1cc2[nH]c(=O)n(CCC(=O)N3CCc4ccccc4C3)c(=O)c2cc1OC`: the result was inactive.

Regarding `CCCOc1ccc(C(CC(=O)O)NC(=O)C23CC4CC(CC(C4)C2)C3)cc1` (stereo not given), the EC50 was 0.08 µM.

Turning to `N/C(=N/O)c1nc(N2CCCC2)nc(N(c2ccccc2)c2ccccc2)n1`, the EC50 is 20.2 µM.

As to `COc1cccc2sc(Nc3nc(C)c(C(C)=O)s3)nc12`, the result was inactive.

For `CC(C)Oc1ccc(C(CC(=O)O)NC(=O)C2CCCCC2)cc1` (stereo not given), the half-maximal effective concentration (EC50) is 4.13 µM.

In the case of `Cn1c(=O)cc(SCC(=O)N2CCN(C3CCCCC3)CC2)c2ccccc21`, the result was inactive.

As for `COc1cc2[nH]c(=O)n(CCCC(=O)N3CCOCC3)c(=O)c2cc1OC`, the outcome was inactive.

With `CCOc1cc2[nH]c(=O)n(CCCN3CCCC3=O)c(=O)c2cc1OCC`, the outcome was inactive.

For `CCCCN1C(=O)NC(c2ccccc2)C1=O` (stereo not given), the outcome was inactive.

Turning to `O=C1NC(=O)N(c2ccccc2)C1c1ccccc1` (stereo not given), the result was inactive.

Turning to `Cc1oc2cc(O)ccc2c(=O)c1Oc1ccccc1Br`, the EC50 is 31.8 µM.

Take `CCCCN1C(=O)N(c2ccccc2)C(CCCC)(c2ccccc2)C1=O` (stereo not given): the result was inactive.
